Source: publication PMC10364322, “Evaluation of chronic drug-induced electrophysiological and cytotoxic effects using human-induced pluripotent stem cell-derived cardiomyocytes (hiPSC-CMs)” (Frontiers in Pharmacology, 2023)

Legend:
[1] = test system: hiPSC-CMs (iCell-Cardiomyocytes^2); experiment: MEA impedance (cytotoxicity readout) in hiPSC-CMs
[2] = cited from earlier work; for Free Cmax: free therapeutic Cmax in humans, ref FDA-approved drug packages, PharmaPendium
[3] = all concentrations tested, up to 96 h

| Structure (SMILES) | Imp (impedance), % change from baseline ([1]; 0.3 µM, 2h) [%] | Imp (impedance), % change from baseline ([1]; 0.3 µM, 24h) [%] | Imp (impedance), % change from baseline ([1]; 0.3 µM, 48h) [%] | Imp (impedance), % change from baseline ([1]; 0.3 µM, 72h) [%] | Imp (impedance), % change from baseline ([1]; 0.3 µM, 96h) [%] | Imp (impedance), % change from baseline ([1]; 1 µM, 2h) [%] | Imp (impedance), % change from baseline ([1]; 1 µM, 24h) [%] | Imp (impedance), % change from baseline ([1]; 1 µM, 48h) [%] | Imp (impedance), % change from baseline ([1]; 1 µM, 72h) [%] | Imp (impedance), % change from baseline ([1]; 1 µM, 96h) [%] | Imp (impedance), % change from baseline ([1]; 3 µM, 72h) [%] | Imp (impedance), % change from baseline ([1]; 3 µM, 96h) [%] | Imp (impedance), % change from baseline ([1]; 3 µM, 2h) [%] | Imp (impedance), % change from baseline ([1]; 3 µM, 24h) [%] | Imp (impedance), % change from baseline ([1]; 3 µM, 48h) [%] | Imp (impedance), % change from baseline ([1]; 10 µM, 2h) [%] | Imp (impedance), % change from baseline ([1]; 10 µM, 24h) [%] | Imp (impedance), % change from baseline ([1]; 10 µM, 48h) [%] | Imp (impedance), % change from baseline ([1]; 10 µM, 72h) [%] | Free Cmax [2] [nM] | other results |
| --- | --- | --- | --- | --- | --- | --- | --- | --- | --- | --- | --- | --- | --- | --- | --- | --- | --- | --- | --- | --- | --- |
| COc1nc(N)nc2c1ncn2[C@@H]1O[C@H](COP(=O)(N[C@@H](C)C(=O)OCC(C)(C)C)Oc2cccc3ccccc23)[C@@H](O)[C@@]1(C)O (stereo partly shown) [BMS-986094] | -4±2 | -3±2 | -6±3 | -8±3 | -18±6 | -1±2 | -1±4 | -5±3 | -16±2 | -29±4 | -19±6 | -38±5 | 3±5 | 1±2 | -5±3 | 2±1 | 4±4 | 2±10 | -11±12 | – | Imp (impedance), % change from baseline ([1]; 10 µM, 96h): -41±20 % |
| C[C@H](CS)C(=O)N1CCC[C@H]1C(=O)O [Captopril] | – | – | – | – | – | 7±5 | -7±1 | -9±4 | -2±3 | -4±5 | 1±4 | -1±4 | 9±3 | -6±3 | -7±4 | 9±3 | -5±3 | -10±5 | -1±5 | 2300 | Imp (impedance), % change from baseline ([1]; 10 µM, 96h): -4±5%; Imp (impedance), % change from baseline ([1]; 30 µM, 2h): 8±2%; Imp (impedance), % change from baseline ([1]; 30 µM, 24h): -4±3%; Imp (impedance), % change from baseline ([1]; 30 µM, 48h): -8±2%; Imp (impedance), % change from baseline ([1]; 30 µM, 72h): 1±5%; Imp (impedance), % change from baseline ([1]; 30 µM, 96h): -4±6%; effect on impedance [1, 3]: did not have a significant effect on impedance |
| COc1cccc2c1C(=O)c1c(O)c3c(c(O)c1C2=O)C[C@@](O)(C(=O)CO)C[C@@H]3O[C@H]1C[C@H](N)[C@H](O)[C@H](C)O1 [Doxorubicin] | -1±1 | -23±6 | -47±6 | -70±7 | -81±7 | -1±2 | -56±4 | -86±1 | -89±2 | -89±2 | -87±0 | -88±1 | -2±0 | -56±5 | -85±2 | – | – | – | – | 7400 | Imp (impedance), % change from baseline ([1]; 0.1 µM, 2h): 3±5%; Imp (impedance), % change from baseline ([1]; 0.1 µM, 24h): -8±5%; Imp (impedance), % change from baseline ([1]; 0.1 µM, 48h): -20±4%; Imp (impedance), % change from baseline ([1]; 0.1 µM, 72h): -27±4%; Imp (impedance), % change from baseline ([1]; 0.1 µM, 96h): -30±8%; decrease in the impedance signal ([1]; 0.3 µM, 72h): ~70% |
| C#Cc1cccc(Nc2ncnc3cc(OCCOC)c(OCCOC)cc23)c1 [Erlotinib] | 0±3 | -5±3 | -5±4 | -5±6 | -3±6 | 1±2 | -6±3 | -2±5 | -3±5 | 1±9 | -2±4 | 0±6 | 1±3 | -6±2 | -1±5 | 5±4 | -17±2 | -13±3 | -13±3 | 3900 | effect on impedance ([1]; 10 µM (highest concentration)): borderline decrease in impedance, which was statistically and physiologically significant only at the 24 h time point; Imp (impedance), % change from baseline ([1]; 10 µM, 96h): -10±2% |
| Cc1cn(-c2cc(NC(=O)c3ccc(C)c(Nc4nccc(-c5cccnc5)n4)c3)cc(C(F)(F)F)c2)cn1 [Nilotinib] | -1±3 | -11±5 | 3±7 | -2±4 | -1±5 | 4±7 | -8±6 | 13±17 | 2±5 | 4±14 | – | – | – | – | – | – | – | – | – | 100 | Imp (impedance), % change from baseline ([1]; 0.01 µM, 2h): -2±3%; Imp (impedance), % change from baseline ([1]; 0.01 µM, 24h): -14±3%; Imp (impedance), % change from baseline ([1]; 0.01 µM, 48h): -4±4%; Imp (impedance), % change from baseline ([1]; 0.01 µM, 72h): -4±15%; Imp (impedance), % change from baseline ([1]; 0.01 µM, 96h): -3±15%; Imp (impedance), % change from baseline ([1]; 0.1 µM, 2h): -2±3%; Imp (impedance), % change from baseline ([1]; 0.1 µM, 24h): -12±3%; Imp (impedance), % change from baseline ([1]; 0.1 µM, 48h): 4±10%; Imp (impedance), % change from baseline ([1]; 0.1 µM, 72h): -6±4%; Imp (impedance), % change from baseline ([1]; 0.1 µM, 96h): -1±5%; effect on impedance [1, 3]: without relevant changes to impedance |
| N=C(N)c1ccc(OCCCCCOc2ccc(C(=N)N)cc2)cc1 [Pentamidine] | 6±2 | -3±4 | -4±4 | -8±5 | -5±3 | 5±2 | -4±3 | -6±4 | -13±3 | -18±5 | -28±8 | -42±9 | 5±2 | -4±2 | -7±6 | – | – | – | – | 200 | Imp (impedance), % change from baseline ([1]; 0.1 µM, 2h): 6±3%; Imp (impedance), % change from baseline ([1]; 0.1 µM, 24h): -2±5%; Imp (impedance), % change from baseline ([1]; 0.1 µM, 48h): -5±4%; Imp (impedance), % change from baseline ([1]; 0.1 µM, 72h): -6±3%; Imp (impedance), % change from baseline ([1]; 0.1 µM, 96h): 1±6%; exposures in patients (TdP cases after intravenous administration) ([2]; prolonged intravenous administration, ref Sands et al., 1985, Conte et al., 1986, Cordes et al., 2005): 1 to 5 µM |
| CC(C)(Sc1cc(C(C)(C)C)c(O)c(C(C)(C)C)c1)Sc1cc(C(C)(C)C)c(O)c(C(C)(C)C)c1 [Probucol] | 2±2 | -4±4 | -3±7 | -4±6 | -3±10 | -1±2 | -6±4 | -3±3 | -8±3 | -2±5 | -10±2 | -7±2 | -2±3 | -7±4 | -5±4 | -3±1 | -7±4 | -4±4 | -12±3 | – | Imp (impedance), % change from baseline ([1]; 10 µM, 96h): -8±4% |
| CCN(CC)CCNC(=O)c1c(C)[nH]c(/C=C2\C(=O)Nc3ccc(F)cc32)c1C [Sunitinib] | 5±6 | -7±3 | -3±5 | -3±2 | -3±3 | 12±7 | -9±6 | -7±7 | -8±7 | -5±6 | – | – | – | – | – | – | – | – | – | 30 | Imp (impedance), % change from baseline ([1]; 0.03 µM, 2h): 5±4%; Imp (impedance), % change from baseline ([1]; 0.03 µM, 24h): -12±3%; Imp (impedance), % change from baseline ([1]; 0.03 µM, 48h): -8±6%; Imp (impedance), % change from baseline ([1]; 0.03 µM, 72h): -8±4%; Imp (impedance), % change from baseline ([1]; 0.03 µM, 96h): -4±4%; Imp (impedance), % change from baseline ([1]; 0.1 µM, 2h): 6±3%; Imp (impedance), % change from baseline ([1]; 0.1 µM, 24h): -10±4%; Imp (impedance), % change from baseline ([1]; 0.1 µM, 48h): -7±4%; Imp (impedance), % change from baseline ([1]; 0.1 µM, 72h): -5±3%; Imp (impedance), % change from baseline ([1]; 0.1 µM, 96h): -2±3%; effect on impedance [1, 3]: did not cause significant changes in the impedance signal |
